Test results from patent US20250230193A1, “CYCLIC COMPOUND HAVING SELECTIVE KRAS INHIBITORY EFFECT ON HRAS AND NRAS” (CHUGAI SEIYAKU KABUSHIKI KAISHA, priority 2022, published 2025).

Columns and labels:
[1] = target: GDP-bound HRAS wild-type protein (Homo sapiens, UniProt P01112); experiment: Binding to HRAS by surface plasmon resonance (SPR), Single Cycle Kinetics; details: SPR, GDP-bound HRAS wild-type vs GDP-bound KRAS wild-type
[2] = target: GDP-bound NRAS wild-type protein (Homo sapiens, UniProt P01111); experiment: Binding to NRAS by surface plasmon resonance (SPR), Single Cycle Kinetics; details: SPR, GDP-bound NRAS wild-type vs GDP-bound KRAS wild-type
Sequence of GDP-bound NRAS wild-type protein (P01111 whole entry): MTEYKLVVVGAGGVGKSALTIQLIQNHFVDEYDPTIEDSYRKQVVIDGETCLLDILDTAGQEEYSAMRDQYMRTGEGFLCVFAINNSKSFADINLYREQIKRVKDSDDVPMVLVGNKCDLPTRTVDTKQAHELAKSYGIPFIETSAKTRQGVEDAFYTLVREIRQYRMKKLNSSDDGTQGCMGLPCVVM

Sequence of GDP-bound HRAS wild-type protein (P01112 whole entry): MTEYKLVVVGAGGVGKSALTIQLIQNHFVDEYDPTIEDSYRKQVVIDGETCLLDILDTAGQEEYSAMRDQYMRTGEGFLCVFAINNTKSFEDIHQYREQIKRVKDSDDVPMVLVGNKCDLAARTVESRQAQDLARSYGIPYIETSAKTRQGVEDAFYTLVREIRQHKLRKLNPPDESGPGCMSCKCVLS

SMILES	HRAS/KRAS (ratio of KD value with respect to HRAS to KD value with respect to KRAS) [1]	NRAS/KRAS (ratio of KD value with respect to NRAS to KD value with respect to KRAS) [2]
CCC[C@H]1C(=O)N[C@@H]([C@@H](C)CC)C(=O)N(CCC)CC(=O)N(C)[C@H]2C/C=C\CCN(C2=O)[C@@H](Cc2ccc(C)cc2)C(=O)N(C)CC(=O)N[C@@H](CCc2ccc(C(F)(F)F)c(OC)c2)C(=O)N2C[C@H](OCC)C[C@H]2C(=O)NC2(CC(C)(C)C2)C(=O)N(C)[C@@H](C2CCCC2)C(=O)N(C)[C@H](C(=O)N(C)C)CC(=O)N1C [PP2054]	A (a compound having 10 or more and less than 20 is denoted as A)	A (a compound having 10 or more and less than 20 is denoted as A)
C#CC[C@H]1C(=O)N[C@@H]([C@@H](C)CC)C(=O)N(C)CC(=O)N(C)[C@H]2C/C=C\CCN(C2=O)[C@@H](Cc2ccc(C(F)(F)F)cc2)C(=O)N(C)CC(=O)N[C@@H](CCc2ccc(C(F)(F)F)c(OC)c2)C(=O)N2C[C@@H](C)C[C@H]2C(=O)NC2(CC(C)(C)C2)C(=O)N(C)[C@@H](C2CCCC2)C(=O)N(C)[C@H](C(=O)N(C)CC)CC(=O)N1C [PP2055]	B (a compound having 3 or more and less than 10 is denoted as B)	A (a compound having 10 or more and less than 20 is denoted as A)
C#CC[C@H]1C(=O)N[C@@H]([C@@H](C)CC)C(=O)N(C)CC(=O)N(C)[C@H]2C/C=C\CCN(C2=O)[C@@H](Cc2ccc(C(F)(F)F)cc2)C(=O)N(C)CC(=O)N[C@@H](CCc2ccc(C(F)(F)F)c(OC)c2)C(=O)N2C[C@@H](C)C[C@H]2C(=O)NC2(CC(C)(C)C2)C(=O)N(C)[C@@H](C2CCCC2)C(=O)N(C)[C@H](C(=O)N(C)CCC)CC(=O)N1C [PP2057]	A (a compound having 10 or more and less than 20 is denoted as A)	A (a compound having 10 or more and less than 20 is denoted as A)
C=CCN1CC(=O)N(C)[C@H]2C/C=C\CCN(C2=O)[C@@H](Cc2ccc(C)cc2)C(=O)N(C)CC(=O)N[C@@H](CCc2ccc(C(F)(F)F)c(OC)c2)C(=O)N2C[C@H](OCC)C[C@H]2C(=O)NC2(CC(C)(C)C2)C(=O)N(C)[C@@H](C2CCCC2)C(=O)N(C)[C@H](C(=O)N(C)C)CC(=O)N(C)[C@@H](CC(C)C)C(=O)N[C@@H]([C@@H](C)CC)C1=O [PP2058]	A (a compound having 10 or more and less than 20 is denoted as A)	A (a compound having 10 or more and less than 20 is denoted as A)
C#CC[C@H]1C(=O)N[C@@H]([C@@H](C)CC)C(=O)N(C)CC(=O)N(C)[C@H]2C/C=C\CCN(C2=O)[C@@H](Cc2ccc(C(F)(F)F)cc2)C(=O)N(C)CC(=O)N[C@@H](CCc2ccc(C(F)(F)F)c(OC)c2)C(=O)N2C[C@H](OCC)C[C@H]2C(=O)NC2(CCC2)C(=O)N(C)[C@@H](C2CCCC2)C(=O)N(C)[C@H](C(=O)N(C)CCC)CC(=O)N1C [PP2059]	A (a compound having 10 or more and less than 20 is denoted as A)	A (a compound having 10 or more and less than 20 is denoted as A)
C#CC[C@H]1C(=O)N[C@@H]([C@@H](C)CC)C(=O)N(C)CC(=O)N(C)[C@H]2C/C=C\CCN(C2=O)[C@@H](Cc2ccc(C(F)(F)F)cc2)C(=O)N(C)CC(=O)N[C@@H](CCc2ccc(C(F)(F)F)c(OC)c2)C(=O)N2C[C@@H](C)C[C@H]2C(=O)NC2(CCC2)C(=O)N(C)[C@@H](C2CCCC2)C(=O)N(C)[C@H](C(=O)N(C)CC)CC(=O)N1C [PP2061]	A (a compound having 10 or more and less than 20 is denoted as A)	AA (a compound having 20 or more is denoted as AA)
CCO[C@@H]1C[C@H]2C(=O)NC3(CC(C)(C)C3)C(=O)N(C)[C@@H](C(CC)CC)C(=O)N(C)[C@H](C(=O)N(C)C)CC(=O)N(C)[C@@H](CC)C(=O)N[C@@H]([C@@H](C)CC)C(=O)N(C)CC(=O)N(C)[C@H]3C/C=C\CCN(C3=O)[C@@H](Cc3ccc(C(F)(F)F)cc3)C(=O)N(C)CC(=O)N[C@@H](CCc3cc(F)c(C(F)(F)F)c(F)c3)C(=O)N2C1 [PP2062]	A (a compound having 10 or more and less than 20 is denoted as A)	AA (a compound having 20 or more is denoted as AA)
C#CC[C@H]1C(=O)N[C@@H]([C@@H](C)CC)C(=O)N(C)CC(=O)N(C)[C@H]2C/C=C\CCN(C2=O)[C@@H](Cc2ccc(C(F)(F)F)cc2)C(=O)N(C)CC(=O)N[C@@H](CCc2ccc(C(F)(F)F)c(OC)c2)C(=O)N2C[C@@H](C)C[C@H]2C(=O)NC2(CCC2)C(=O)N(C)[C@@H](C2CCCC2)C(=O)N(C)[C@H](C(=O)N(C)CCC)CC(=O)N1C [PP2063]	A (a compound having 10 or more and less than 20 is denoted as A)	AA (a compound having 20 or more is denoted as AA)
CCC[C@H]1C(=O)N[C@@H]([C@@H](C)CC)C(=O)N(C)CC(=O)N(C)[C@H]2C/C=C\CCN(C2=O)[C@@H](Cc2ccc(C)cc2)C(=O)N(C)CC(=O)N[C@@H](CCc2cc(F)c(C(F)(F)F)c(F)c2)C(=O)N2C[C@H](OCC)C[C@H]2C(=O)NC2(CC(C)(C)C2)C(=O)N(C)[C@@H](C(CC)CC)C(=O)N(C)[C@H](C(=O)N(C)C)CC(=O)N1C [PP2064]	A (a compound having 10 or more and less than 20 is denoted as A)	A (a compound having 10 or more and less than 20 is denoted as A)
CC[C@H](C)[C@@H]1NC(=O)[C@H](C(C)C)N(C)C(=O)C[C@@H](C(=O)N(C)CC)N(C)C(=O)[C@H](C2CCCC2)N(C)C(=O)C2(CCC2)NC(=O)[C@@H]2C[C@H](C)CN2C(=O)[C@H](CCc2ccc(C(F)(F)F)c(OC)c2)NC(=O)CN(C)C(=O)[C@H](Cc2ccc(C(F)(F)F)cc2)N2CC/C=C\C[C@@H](C2=O)N(C)C(=O)CN(C)C1=O [PP2065]	B (a compound having 3 or more and less than 10 is denoted as B)	A (a compound having 10 or more and less than 20 is denoted as A)
CCO[C@@H]1C[C@H]2C(=O)NC3(CC(C)(C)C3)C(=O)N(C)[C@@H](C(CC)CC)C(=O)N(C)[C@H](C(=O)N(C)C)CC(=O)N(C)[C@@H](CC)C(=O)N[C@@H]([C@@H](C)CC)C(=O)N(C)CC(=O)N(C)[C@H]3C/C=C\CCN(C3=O)[C@@H](Cc3ccc(C(F)(F)F)cc3)C(=O)N(C)CC(=O)N[C@@H](CCc3ccc(C(F)(F)F)c(OC)c3)C(=O)N2C1 [PP2066]	B (a compound having 3 or more and less than 10 is denoted as B)	A (a compound having 10 or more and less than 20 is denoted as A)
CCCN(C)C(=O)[C@@H]1CC(=O)N(C)[C@@H](C(C)C)C(=O)N[C@@H]([C@@H](C)CC)C(=O)N(C)CC(=O)N(C)[C@H]2C/C=C\CCN(C2=O)[C@@H](Cc2ccc(C(F)(F)F)cc2)C(=O)N(C)CC(=O)N[C@@H](CCc2ccc(C(F)(F)F)c(OC)c2)C(=O)N2C[C@@H](C)C[C@H]2C(=O)NC2(CCC2)C(=O)N(C)[C@@H](C2CCCC2)C(=O)N1C [PP2067]	A (a compound having 10 or more and less than 20 is denoted as A)	AA (a compound having 20 or more is denoted as AA)
CCC[C@H]1C(=O)N[C@@H]([C@@H](C)CC)C(=O)N(C)CC(=O)N(C)[C@H]2C/C=C\CCN(C2=O)[C@@H](Cc2ccc(C)cc2)C(=O)N(C)CC(=O)N[C@@H](CCc2ccc(C(F)(F)F)c(OC)c2)C(=O)N2C[C@H](OCC)C[C@H]2C(=O)NC2(CC(C)(C)C2)C(=O)N(C)[C@@H](C(CC)CC)C(=O)N(C)[C@H](C(=O)N(C)C)CC(=O)N1C [PP2068]	B (a compound having 3 or more and less than 10 is denoted as B)	A (a compound having 10 or more and less than 20 is denoted as A)
CC[C@H](C)[C@@H]1NC(=O)[C@H](C2CC2)N(C)C(=O)C[C@@H](C(=O)N(C)CC)N(C)C(=O)[C@H](C2CCCC2)N(C)C(=O)C2(CCC2)NC(=O)[C@@H]2C[C@H](C)CN2C(=O)[C@H](CCc2ccc(C(F)(F)F)c(OC)c2)NC(=O)CN(C)C(=O)[C@H](Cc2ccc(C(F)(F)F)cc2)N2CC/C=C\C[C@@H](C2=O)N(C)C(=O)CN(C)C1=O [PP2069]	A (a compound having 10 or more and less than 20 is denoted as A)	AA (a compound having 20 or more is denoted as AA)
CCCN(C)C(=O)[C@@H]1CC(=O)N(C)[C@@H](C2CC2)C(=O)N[C@@H]([C@@H](C)CC)C(=O)N(C)CC(=O)N(C)[C@H]2C/C=C\CCN(C2=O)[C@@H](Cc2ccc(C(F)(F)F)cc2)C(=O)N(C)CC(=O)N[C@@H](CCc2ccc(C(F)(F)F)c(OC)c2)C(=O)N2C[C@@H](C)C[C@H]2C(=O)NC2(CCC2)C(=O)N(C)[C@@H](C2CCCC2)C(=O)N1C [PP2070]	A (a compound having 10 or more and less than 20 is denoted as A)	A (a compound having 10 or more and less than 20 is denoted as A)
